In general, EC50 refers to the concentration giving half of the maximal effect.

Consider 28 compounds from patent US20060004012A1, “Compounds, pharmaceutical compositions and methods for use in treating metabolic disorders” (priority 2004, published 2006).

This experiment concerns the target T1, human GPR40 (Homo sapiens, UniProt O14842).
T1 construct: expressed in transfected cells; host or cells: CHO cells, transiently transfected with Lipofectamine 2000 and co-transfected with an aequorin expression vector (Euroscreen)
Nature of the experiment: Cell-based aequorin assay using human GPR40. The conditions noted are these: activation of human GPR40; CHO cells transfected with GPR40 and aequorin expression vectors; aequorin luminescence, area-under-curve 2-20 seconds; read-out: Relative EC50. The procedure: A cell-based aequorin assay may be employed to characterize the modulatory activity of compounds on the GPR40 signaling pathway. In an exemplary assay, CHO cells are transfected in a 15 cm plated containing 14 million cells with 5 μg of GPR40 expression vector and 5 μg of Aequorin expression vector (Euroscreen) using Lipofectamine 2000 (Invitrogen). After 17-24 hours post-transfection, cells are washed with phosphate buffered saline (PBS) and detached from the tissue culture dish with 2 mL of trypsin (0.25%(w/v)). Trypsinization is halted with 28 mL of Hanks Buffered Salt Solution containing 20 mM Hepes (H/HBSS) and 0.01% fatty acid-free bovine serum albumin (BSA) or 0.625% fatty acid-free human serum albumin (HSA). Coelantrazine is added to 1 ug/mL and the cells are incubated for 2 hours at room temperature. Cells are gently mixed every 15 minutes. Compounds are dissolved in dimethyl sulfoxide for preparation of 10 mM stock solutions. Compounds are diluted in H/HBSS containing either 0.01% BSA or 0.625% HSA. Serial dilutions of the test compounds are prepared to determine dose response.
Aequorin luminescence measurements are made using an EG&G Berthold 96-well luminometer and the response is measured over a 20 second interval after cells and compounds were mixed. The area-under-curve from 2-20 seconds is plotted to determine dose reponse. The EC50 (effective concentration to reach 50% maximal response) is determined from the dose response plot. […]

T1 sequence (O14842 whole entry): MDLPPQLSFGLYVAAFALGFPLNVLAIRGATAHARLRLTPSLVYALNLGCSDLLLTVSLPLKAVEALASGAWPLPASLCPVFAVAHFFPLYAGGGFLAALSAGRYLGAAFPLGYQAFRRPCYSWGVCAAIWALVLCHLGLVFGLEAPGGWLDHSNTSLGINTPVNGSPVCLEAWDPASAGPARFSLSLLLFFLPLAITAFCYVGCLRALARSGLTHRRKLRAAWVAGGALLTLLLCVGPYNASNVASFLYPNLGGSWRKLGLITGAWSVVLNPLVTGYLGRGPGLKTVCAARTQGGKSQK

As for `CC#CC(CC(=O)O)c1ccc(OCc2csc(-c3ccc(Cl)cc3)n2)cc1` (stereo not shown) [Compound 8.3], the EC50 fell in the range of 10 to 100 nM.

As for `COc1cccc(CN(Cc2cccc(OC)c2)c2ccc(N(CC(=O)O)c3ccccc3)cc2)c1` [Compound 82.1], the EC50 was below 10 nM.

As for `CC#C[C@H](CC(=O)O)c1ccc(OCc2ccc(OC)cc2)cc1` [Compound 40.5, (3R)-3-[4-(4-Methoxy-benzyloxy)-phenyl]-hex-4-ynoic acid], the EC50 was 1000 to 10000 nM.

Consider `Cc1ccccc1C(CC(=O)O)c1ccc(OCc2cccc(Oc3ccccc3)c2)cc1` (stereo not shown) [Compound 84.4], for which the concentration giving a half-maximal response (EC50) is 100 to 1000 nM.

As to `CC#CC(CC(=O)O)c1ccc(OCc2cccc(-c3ccccc3)c2)cc1` (stereo not shown) [Compound 6.1], the EC50 was in the range of 10 to 100 nM.

In the case of `Cc1ccccc1COc1ccc(C(C#CC(C)C)CC(=O)O)cc1` (stereo not shown) [Compound 71], the EC50 was 100 to 1000 nM.

As for `C#CC(CC(=O)O)c1ccc(OCc2ccc(OC)cc2)cc1` (stereo not shown) [Compound 41], the EC50 was 100 to 1000 nM.

Take `COCC#CC(CC(=O)O)c1ccc(OCc2ccc(OC)cc2)cc1` (stereo not shown) [Compound 14.5]: the EC50 fell in the range of 1000 to 10000 nM.

For the compound `CC#CC(CC(=O)O)c1ccc(OCc2cccc(-c3cccnc3)c2)cc1` (stereo not shown) [Compound 10.9], the EC50 was in the range of 100 to 1000 nM.

Take `CC#CC(CC(=O)O)c1ccc(OCc2ccc(-c3ccccc3OCC)cc2)cc1` (stereo not shown) [Compound 7.5]: the EC50 fell in the range of 10 to 100 nM.

As to `O=C(O)CC1(c2ccc(OCc3cccc(-c4ccc(C(F)(F)F)cc4)c3)cc2)CC1` [Compound 89], the EC50 fell in the range of 1000 to 10000 nM.

With `CC#CC(CC(=O)O)c1ccc(OCc2ccc(-c3ccccn3)cc2)cc1` (stereo not shown) [Compound 10.4], the concentration giving a half-maximal response (EC50) fell in the range of 10 to 100 nM.

Regarding `CCC(=O)N[C@@H](CC(=O)O)c1ccc(OCc2cccc(Oc3ccc(F)cc3)c2)cc1` [Compound 88.2], the half-maximal effective concentration (EC50) is above 10000 nM.

As for `COc1ccc(COc2ccc(C(C#C[Si](C)(C)C)CC(=O)O)cc2)cc1` (stereo not shown) [Compound 14.1], the concentration giving a half-maximal response (EC50) fell in the range of 1000 to 10000 nM.

Turning to `CC#CC(CC(=O)O)c1ccc(OCc2cccc(-c3ccc(C#N)cc3)c2)cc1` (stereo not shown) [Compound 6.7], the EC50 lay in the range of 10 to 100 nM.

On to `Cc1ccc(C(CC(=O)O)c2ccc(OCc3cccc(Oc4ccccc4)c3)cc2)cc1` (single isomer, unassigned) [Compound 84.3], for which the EC50 was 100 to 1000 nM.

Regarding `CC#CC(CC(=O)O)c1ccc(OCc2ccc(-c3ccc(C(F)(F)F)cc3)cc2)cc1` (stereo not shown) [Compound 7.10], the concentration giving a half-maximal response (EC50) fell in the range of 100 to 1000 nM.

`CC#CC(CC(=O)O)c1ccc(SCc2ccccc2C)cc1` (stereo not shown) [Compound 28, 3-[4-(2-Methyl-benzylsulfanyl)-phenyl]-hex-4-ynoic acid]: the concentration giving a half-maximal response (EC50) is 100 to 1000 nM.

Consider `CC#CC(CC(=O)O)c1ccc(OCc2ccc(-c3ccc(OCC)cc3)cc2)cc1` (stereo not shown) [Compound 7.9], for which the EC50 is 100 to 1000 nM.

On to `CC#CC(CC(=O)O)c1ccc(OCc2nn(-c3ccccc3)nc2C)cc1` (stereo not shown) [Compound 26, 3-[4-(5-Methyl-2-phenyl-2H-[1,2,3]triazol-4-ylmethoxy)-phenyl]-hex-4-ynoic acid], for which the EC50 fell in the range of 10 to 100 nM.

Take `CC#CC(CC(=O)O)c1ccc(OCc2cccc(Oc3ccccc3)c2)cc1` (stereo not shown) [Compound 10.3]: the EC50 was in the range of 10 to 100 nM.

As to `CC#CC(CC(=O)O)c1ccc(OCc2csc(-c3ccc(OC)cc3)n2)cc1` (stereo not shown) [Compound 8.4], the EC50 is 10 to 100 nM.

`CC#CC(CC(=O)O)c1ccc(OCc2noc(-c3ccc(C(F)(F)F)cc3)n2)cc1` (stereo not shown) [Compound 27.1]: the EC50 is 100 to 1000 nM.

`CC#CC(CC(=O)O)c1ccc(OCc2ccc(-c3ccccc3)cc2)cc1` (stereo not shown) [Compound 7.3]: the 50% effective concentration (EC50) is 1000 to 10000 nM.

For `OC(O)CC(c1ccc(OCc2cccc(-c3ccc(C(F)(F)F)cc3)c2)cc1)C1CC1` (stereo not shown) [Compound 91], the 50% effective concentration (EC50) was 1000 to 10000 nM.

`COc1ccc(COc2ccc(C(C)CC(=O)O)cc2)cc1` (stereo not shown) [Compound 14.4]: the EC50 is above 10000 nM.

For the compound `COc1ccc(COc2ccc(C(C#Cc3ccccc3)CC(=O)O)cc2)cc1` (stereo not shown) [Compound 14.6], the EC50 fell in the range of 1000 to 10000 nM.

For the compound `O=C(O)CN(c1ccccc1)c1ccc(NC(=O)CCc2ccccc2)cc1` [Compound 82.5], the EC50 is below 10 nM.
